Here are results for one molecule from patent US7951364B2, “CaR receptor as a mediator of migratory cell chemotaxis and/or chemokinesis” (The General Hospital Corporation, priority 2000, dated 2011).

Assay [1] concerns the target calcium-sensing receptor (CaR) (Homo sapiens, UniProt P41180). The conditions noted are these: cited from earlier work.
Assay [2] concerns CD4. The conditions noted are these: varying Ca^++ concentration. As for the experimental part:
(§1) Chemokine receptor expression and flow cytometric analysis. Purified monocytes were incubated in a Ca^++-free medium supplemented with 1 mM, 3 mM or 5 mM CaCl2 or with 1.5 mM CaCl2 plus 1 μM NPS R-467 or S-467. Cells were washed once in PBS with 1% FCS and resuspended in 100 μl of Ca^++-free PBS. Monoclonal antibody against the CaR was added to the cells and incubated alone or with the CaR peptide for 30 min at room temperature. Cells were washed with PBS containing 1% FCS, resuspended in PBS with 1% FCS and incubated for 15 min at room temperature with anti-mouse IgG conjugated to FITC. The cells were washed again and conjugated monoclonal antibody [anti-CXCR4, anti-CCR5 (Pharmingen, San Diego, Calif.); anti-CCR2 (R&D, Minneapolis, Minn.); anti-CD14 (Becton Dickinson, San Jose, Calif.); or anti-CD4 (Becton Dickinson, San Jose, Calif.)] was added and incubated for 15 min at room temperature. Stained cells were fixed with 1% paraformaldehyde and assayed within 24 hrs. Flow cytometric analysis was performed using a dual laser FACSCalibur (Becton Dickinson Immunocytometry Systems, San Jose, Calif.) calibrated using 2 μm Calibrite beads (Becton Dickinson). Data acquisition and analysis were performed using CellQuest software (Becton Dickinson).

Assay [3] concerns CCR-5. As to conditions: elevated Ca^++. The protocol: as §1
The test system of assay [4] is CXCR-4. As to conditions: elevated Ca^++. As for the experimental part:
as §1

Assay [5] has as its system mononuclear cells derived from neonatal CaR −/−, +/− or +/+ mice. Put plainly: Transmigration assay with cells from CaR knockout and wild-type mice. As to conditions: CaR −/− cells. It counts as cell-based, mouse. The protocol:
Transmigration assays. Transwells (5 μm pore size polycarbonate membrane, 12 mm diameter) (Costar, Corning, N.Y.) were used to assess cell migration using an established methodology (25). The concentration of Ca^++ in IMDM (CellGro, Herndon, Va.) in the upper and lower chambers of the transwell were adjusted according to a checkerboard analysis of chemotaxis. Calcium concentrations varied from 0 mM to 6.5 mM. Purified monocytes (1×10^4) were then placed in the top chamber with 150 μl of IMDM (CellGro, Hemdon, Va.). 500 μl of the medium was added to the bottom of the well and supplemented with varying concentrations of Ca^++ or with Ca^++ plus 10 ng/ml of MCP-1, 100 ng/ml of SDF-1α or 10 ng/ml of MIP-1α (PeproTech, Rocky Hills, N.Y.). Cells were incubated at 37° C. for 3 hours. To study inhibition of chemotaxis, cells were subsequently incubated with wortmannin (1 μM for 20 minutes at 37° C.), herbimycin (1 μM for 20 minutes at 37° C.) or genistein (1 μg/ml for 20 minutes at 37° C.), before their use in transmigration assays. At the end of the experiment, cells were then harvested from the lower chamber and counted using a hemocytometer.
CaR−/− were bred as previously described (Ho, C., et al., Nat Genet 1995, 11:389-94). To produce CaR−/− mice for this study, heterozygote mice were intercrossed. The mice studied were either 129S6/svev or 129S6/svev/Swiss Webster mixed genetic background. […]

For assay [6], the system named is CCR-2. Description: Chemokine receptor expression on monocytes by flow cytometry: CCR-2. It is filed as cell-based, human. The protocol: Chemokine receptor expression and flow cytometric analysis.
Table 1: Exposure of CD14^+ monocytes to Ca^++ enhances CCR2 expression in a dose dependent manner. Monocytes were exposed to varying concentrations of Ca^++ and to the selective CaR activator, NPS R-467 (1 μM), or to NPS S-467 (1 μM) in the presence of 1.5 mM Ca^++. The median fluorescence intensity for CCR2 expression was measured for each Ca^++ concentration and in the presence of NPS R-467 or S-467. Mean values +/−s.e.m. from three independent experiments are shown.
For orientation: Flow cytometry measures light scatter and fluorescence of single cells or particles in a stream.

Values joined by “and” are separate entries in the source; they are usually repeats but may differ in a detail not shown here. Equal entries are not always repeated.

Sequence of calcium-sensing receptor (CaR) (P41180 20-1078): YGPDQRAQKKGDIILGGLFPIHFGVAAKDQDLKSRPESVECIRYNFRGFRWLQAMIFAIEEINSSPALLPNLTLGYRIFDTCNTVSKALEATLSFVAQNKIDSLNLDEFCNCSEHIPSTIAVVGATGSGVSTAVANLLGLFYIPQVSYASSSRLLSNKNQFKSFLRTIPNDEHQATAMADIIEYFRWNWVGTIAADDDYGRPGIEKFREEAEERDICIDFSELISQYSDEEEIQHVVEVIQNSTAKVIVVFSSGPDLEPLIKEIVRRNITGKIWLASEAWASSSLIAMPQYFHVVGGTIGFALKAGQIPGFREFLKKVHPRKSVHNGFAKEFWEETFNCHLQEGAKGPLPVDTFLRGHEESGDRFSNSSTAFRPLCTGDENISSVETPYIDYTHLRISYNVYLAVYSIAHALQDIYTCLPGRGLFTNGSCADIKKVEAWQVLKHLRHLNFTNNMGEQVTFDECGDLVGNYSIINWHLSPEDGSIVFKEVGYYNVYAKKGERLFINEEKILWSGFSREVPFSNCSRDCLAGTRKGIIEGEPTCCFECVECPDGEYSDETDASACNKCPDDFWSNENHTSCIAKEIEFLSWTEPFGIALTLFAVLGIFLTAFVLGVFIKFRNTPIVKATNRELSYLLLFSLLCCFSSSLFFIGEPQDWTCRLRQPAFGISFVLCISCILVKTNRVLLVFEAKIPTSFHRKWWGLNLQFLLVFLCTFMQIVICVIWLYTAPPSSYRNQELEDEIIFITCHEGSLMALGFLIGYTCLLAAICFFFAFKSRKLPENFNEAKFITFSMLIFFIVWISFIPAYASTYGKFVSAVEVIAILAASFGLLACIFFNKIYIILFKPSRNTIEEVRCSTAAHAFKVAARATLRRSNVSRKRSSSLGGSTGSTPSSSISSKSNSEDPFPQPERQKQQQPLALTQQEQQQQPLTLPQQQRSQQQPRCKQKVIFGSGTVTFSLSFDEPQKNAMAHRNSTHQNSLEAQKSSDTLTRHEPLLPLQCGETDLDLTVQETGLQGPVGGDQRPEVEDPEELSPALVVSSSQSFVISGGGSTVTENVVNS

On to `[Ca+2].[Cl-].[Cl-]` [Ca^++, calcium chloride], for which, in assay [1], the “Ca^++ concentration at which activation of the receptor is maximal” value is on record as 5 mM. Further, the “Fluorescence intensity of anti-CD4 antibody staining” value in assay [2] is recorded as “did not vary”. The “CCR-5 median fluorescence intensity” value in assay [3] is “failed to demonstrate any change”. For the same molecule, the CXCR-4 expression entry in assay [4] is on record as “increased but did not achieve statistical significance”. Also, the “Transmigration to the Ca^++ gradient” value in assay [5] is “failed to transmigrate”. Besides, in assay [6], the “Cell surface CCR-2 expression” value was “up-modulation”; the “Mean fluorescent intensity -CCR-2 Mean +/− s.e.m.” value is 278 +/− 39 and 296 +/− 35 and 307 +/− 35.
